Laboratory results from patent US20100197650A1, “COMPOSITIONS AND METHODS OF TREATMENT COMPRISING CEFTAROLINE” (FOREST LABORATORIES HOLDINGS LTD., priority 2008, published 2010).
≈ marks a conversion by molar mass, not a printed value. Where two headings read alike, the source gives them in different places.

How the values were obtained:
ESBL-producing E. coli = assay: Susceptibility testing MIC/MBC, broth microdilution (Example 2); format: cell-based, Escherichia coli; conditions: for MBC range / MIC range: E. coli (10) clinical isolates; for MBC / MIC: Escherichia coli
[1] = system: AmpC-derepressed Enterobacter cloacae; assay: microbe, parasite or virus in culture; format: cell-based; conditions: for MBC range / MIC range: E. cloacae (10) clinical isolates; for MBC / MIC: Enterobacter cloacae
[2] = system: clinical Enterobacteriacae and P. aeruginosa isolates; assay: Susceptibility testing (Example 2), summary over species; format: cell-based; conditions: Pseudomonas aeruginosa, read-out: MIC values
Staphylococcus aureus = assay: MIC, broth microdilution (Example 1); format: cell-based; conditions: Staphylococcus aureus, MRSA
Description: (§1) Stock solutions of all antibacterial agents were prepared at 80-fold (80×) the final target concentration in the appropriate solvent and the solution was allowed to stand for 60 minutes. All antibacterial agents were in solution under these conditions. The final drug concentrations in the FIC assay plates were set to bracket the MIC value of each agent for each test organism, unless the strain was totally resistant to the test agent.
(§2) The test organisms were originally received from clinical sources, or from the American Type Culture Collection. Upon receipt, the isolates were streaked onto the appropriate growth medium: Chocolate Agar for H. influenzae, Tryptic Soy Agar II (Becton Dickinson, Sparks, Md.) supplemented with 5% defibrinated sheep blood for streptococci, and unsupplemented Tryptic Soy Agar II for all other organisms. Colonies were harvested from these plates and a cell suspension was prepared in Tryptic Soy Broth (Becton Dickinson) containing cryoprotectant. Aliquots were then frozen at −80° C. On the day prior to assay, the frozen seeds of the organisms to be tested in that session were thawed and streaked for isolation onto the appropriate agar medium plates and incubated overnight at 35° C.
(§3) The test medium for H. influenzae was Haemophilus Test Medium. Streptococci were tested in Mueller Hinton II Broth (Becton Dickinson; Lot 6235472) supplemented with 2% lysed horse blood (Cleveland Scientific, Bath, Ohio; Lot H88621). All other organisms were tested in Mueller Hinton II Broth (Becton Dickinson, Lot 6235472). The broth was prepared at 1.05× normal weight/volume to offset the 5% volume of the drugs in the final test plates.
(§4) In order to select the proper test concentrations for each drug combination, minimal inhibitory concentration (MIC) values were first determined using the broth microdilution method previously described (Clinical and Laboratory Standards Institute. Methods for Dilution Antimicrobial Susceptibility Tests for Bacteria That Grow Aerobically; Approved Standard—Seventh Edition. Clinical and Laboratory Standards Institute document M7-A7 [ISBN 1-56238-587-9]. Clinical and Laboratory Standards Institute, 940 West Valley Road, Suite 1400, Wayne, Pa. 19087-1898 USA, 2006).
(§5) The wells of standard 96-well microdilution plates (Falcon 3918) were filled with 150 μL of 100% DMSO using the Multidrop 384. These plates were used to prepare the drug “mother plates” which provided the serial drug dilutions for the drug combination plates. The Biomek 2000 was used to transfer 150 μl of each stock solution (80×) from the wells in Column 1 of a deep well plate to the corresponding wells in Column 1 of the mother plate and to make seven 2-fold serial dilutions. Two mother plates, one for each drug, were combined to form a “checkerboard” pattern by transfer of equal volumes (using a multi-channel pipette) to the drug combination plate. Row H and Column 8 each contained serial dilutions of one of the agents alone for determination of the MIC.
(§6) Plates were stacked 3 high, covered with a lid on the top plate, placed in plastic bags, and incubated at 35° C. for approximately 20 hours. Following incubation, the microplates were removed from the incubator and viewed from the bottom using a ScienceWare plate viewer. Prepared reading sheets were marked for the MIC of drug 1 (row H), the MIC of drug 2 (column 8) and the wells of the growth-no growth interface.

Acinetobacter baumannii = assay: MIC, broth microdilution (Example 1); format: cell-based
Description: as §1, §2, §3, §4, §5, §6

Klebsiella pneumoniae = assay: MIC, broth microdilution (Example 1); format: cell-based; conditions: Klebsiella pneumoniae
Description: as §1, §2, §3, §4, §5, §6

Streptococcus pneumoniae = assay: MIC, broth microdilution (Example 1); format: cell-based
Description: as §1, §2, §3, §4, §5, §6

[3] = system: ESBL-producing Klebsiella pneumoniae; assay: Susceptibility testing MIC/MBC, broth microdilution (Example 2); format: cell-based; conditions: for MBC range / MIC range: K. pneumonia (10) clinical isolates; for MBC / MIC: Klebsiella pneumoniae
P. aeruginosa = assay: as above; format: cell-based, Pseudomonas aeruginosa; conditions: for MBC range / MIC range: P. aeruginosa (20) clinical isolates; for MBC / MIC: Pseudomonas aeruginosa
Escherichia coli = assay: MIC, broth microdilution (Example 1); format: cell-based; conditions: Escherichia coli, read-out: MIC
Description: as §1, §2, §3, §4, §5, §6

Pseudomonas aeruginosa = assay: MIC, broth microdilution (Example 1); format: cell-based
Description: as §1, §2, §3, §4, §5, §6

**Q.** What does the source list for `CN(C)c1cc(NC(=O)CNC(C)(C)C)c(O)c2c1C[C@H]1C[C@H]3[C@H](N(C)C)C(O)=C(C(N)=O)C(=O)[C@@]3(O)C(O)=C1C2=O` [Tigecycline]?
**A.** MBC range (ESBL-producing E. coli): 0.06 to 4 µg/mL; MIC range (ESBL-producing E. coli): 0.06 to 0.5 µg/mL; MBC (ESBL-producing E. coli; E. coli isolate no. 5401): 1 µg/mL (≈ 1.71 µM); MIC (ESBL-producing E. coli; E. coli isolate no. 5401): 0.5 µg/mL (≈ 0.854 µM); MBC (ESBL-producing E. coli; E. coli isolate no. 5411): 0.5 µg/mL (≈ 0.854 µM); MIC (ESBL-producing E. coli; E. coli isolate no. 5411): 0.125 µg/mL (≈ 0.213 µM); MBC range [1]: 0.5 to 4 µg/mL; MIC range [1]: 0.25 to 2 µg/mL; MBC ([1]; E. cloacae isolate no. 4073): 2 µg/mL (≈ 3.41 µM); MIC ([1]; E. cloacae isolate no. 4073): 0.5 µg/mL (≈ 0.854 µM); MBC ([1]; E. cloacae isolate no. 5420): 2 µg/mL (≈ 3.41 µM); MIC ([1]; E. cloacae isolate no. 5420): 0.5 µg/mL (≈ 0.854 µM); MIC [2]: ≤ 8 µg/mL; MIC (Staphylococcus aureus; S. aureus 0765 (MRSA)): 0.25 µg/mL; MIC (Staphylococcus aureus; S. aureus 2053 (MRSA)): 0.5 µg/mL; MIC (Acinetobacter baumannii; A. baumannii 2602): 0.06 µg/mL; MIC (Acinetobacter baumannii; Acinetobacter baumannii): 0.06 µg/mL; MIC (Klebsiella pneumoniae): 0.25 µg/mL; MIC (Streptococcus pneumoniae; S. pneumoniae 0884 (PRSP)): 0.03 µg/mL; MIC (Streptococcus pneumoniae; Streptococcus pneumoniae, PRSP): 0.03 µg/mL; MBC range [3]: 0.5 to 8 µg/mL; MIC range [3]: 0.125 to 1 µg/mL; MBC ([3]; K. pneumonia isolate no. 5427): 2 µg/mL (≈ 3.41 µM); MIC ([3]; K. pneumonia isolate no. 5427): 0.5 µg/mL (≈ 0.854 µM); MBC ([3]; K. pneumonia isolate no. 5436): 1 µg/mL (≈ 1.71 µM); MIC ([3]; K. pneumonia isolate no. 5436): 0.125 µg/mL (≈ 0.213 µM); MBC range (P. aeruginosa): 8 to 256 µg/mL; MIC range (P. aeruginosa): 2 to 32 µg/mL; MBC (P. aeruginosa; P. aeruginosa isolate no. 796): 32 µg/mL (≈ 54.6 µM); MIC (P. aeruginosa; P. aeruginosa isolate no. 796): 32 µg/mL (≈ 54.6 µM); MBC (P. aeruginosa; P. aeruginosa isolate no. 956): 128 µg/mL (≈ 219 µM); MIC (P. aeruginosa; P. aeruginosa isolate no. 956): 16 µg/mL (≈ 27.3 µM); MBC (P. aeruginosa; P. aeruginosa isolate no. 1019): 8 µg/mL (≈ 13.7 µM); MIC (P. aeruginosa; P. aeruginosa isolate no. 1019): 2 µg/mL (≈ 3.41 µM); MBC (P. aeruginosa; P. aeruginosa isolate no. 1037): 32 µg/mL (≈ 54.6 µM); MIC (P. aeruginosa; P. aeruginosa isolate no. 1037): 8 µg/mL (≈ 13.7 µM)

**Q.** `NCC[C@H](O)C(=O)N[C@@H]1C[C@H](N)[C@@H](O[C@H]2O[C@H](CN)[C@@H](O)[C@H](O)[C@H]2O)[C@H](O)[C@H]1O[C@H]1O[C@H](CO)[C@@H](O)[C@H](N)[C@H]1O` [Amikacin] was tested. Which MBC range (ESBL-producing E. coli) did it give?
**A.** Its MBC range is 4 to 64 µg/mL.

**Q.** And the MIC range (ESBL-producing E. coli)?
**A.** The MIC range was 1 to 16 µg/mL.

**Q.** And the MBC (ESBL-producing E. coli; E. coli isolate no. 5401, read-out: MBC)?
**A.** The MBC was 4 µg/mL (≈ 6.83 µM).

**Q.** What about the MIC (ESBL-producing E. coli; E. coli isolate no. 5401, read-out: MIC) of the same compound?
**A.** The MIC was 2 µg/mL (≈ 3.42 µM).

**Q.** And the MBC (ESBL-producing E. coli; E. coli isolate no. 5411, read-out: MBC)?
**A.** Its MBC is 16 µg/mL (≈ 27.3 µM).

**Q.** What about the MIC (ESBL-producing E. coli; E. coli isolate no. 5411, read-out: MIC) of the same compound?
**A.** The MIC was 8 µg/mL (≈ 13.7 µM).

**Q.** And the MBC range [1]?
**A.** The MBC range was 1 to 8 µg/mL.

**Q.** And the MIC range [1]?
**A.** The MIC range was 0.5 to 4 µg/mL.

**Q.** What about the MBC ([1]; E. cloacae isolate no. 4073) of the same compound?
**A.** Its MBC is 8 µg/mL (≈ 13.7 µM).

**Q.** And the MIC ([1]; E. cloacae isolate no. 4073)?
**A.** Its MIC is 1 µg/mL (≈ 1.71 µM).

**Q.** What about the MBC ([1]; E. cloacae isolate no. 5420) of the same compound?
**A.** Its MBC is 2 µg/mL (≈ 3.42 µM).

**Q.** And the MIC ([1]; E. cloacae isolate no. 5420)?
**A.** Its MIC is 1 µg/mL (≈ 1.71 µM).

**Q.** And the MIC (Escherichia coli; E. coli 1587)?
**A.** The MIC was 4 µg/mL.

**Q.** And the MIC (Escherichia coli; E. coli 2273 (ESBL))?
**A.** Its MIC is 8 µg/mL.

**Q.** And the MIC (Pseudomonas aeruginosa; P. aeruginosa 2555)?
**A.** The MIC was 8 µg/mL.

**Q.** What about the MIC (Pseudomonas aeruginosa; P. aeruginosa 2559) of the same compound?
**A.** The MIC was 4 µg/mL.

**Q.** What about the MIC (Klebsiella pneumoniae; K. pneumoniae 1340, read-out: MIC) of the same compound?
**A.** The MIC was 1 µg/mL.

**Q.** What about the MIC (Klebsiella pneumoniae; K. pneumoniae 1461, read-out: MIC) of the same compound?
**A.** Its MIC is 1 µg/mL.

**Q.** What about the MBC range [3] of the same compound?
**A.** Its MBC range is 1 to 128 µg/mL.

**Q.** And the MIC range [3]?
**A.** Its MIC range is 1 to 32 µg/mL.

**Q.** And the MBC ([3]; K. pneumonia isolate no. 5427, read-out: MBC)?
**A.** Its MBC is 2 µg/mL (≈ 3.42 µM).

**Q.** And the MIC ([3]; K. pneumonia isolate no. 5427, read-out: MIC)?
**A.** The MIC was 2 µg/mL (≈ 3.42 µM).

**Q.** What about the MBC ([3]; K. pneumonia isolate no. 5436, read-out: MBC) of the same compound?
**A.** Its MBC is 2 µg/mL (≈ 3.42 µM).

**Q.** And the MIC ([3]; K. pneumonia isolate no. 5436, read-out: MIC)?
**A.** The MIC was 1 µg/mL (≈ 1.71 µM).

**Q.** What about the MBC range (P. aeruginosa) of the same compound?
**A.** The MBC range was 2 to 64 µg/mL.

**Q.** And the MIC range (P. aeruginosa)?
**A.** Its MIC range is 2 to 16 µg/mL.

**Q.** What about the MBC (P. aeruginosa; P. aeruginosa isolate no. 796, read-out: MBC) of the same compound?
**A.** The MBC was 32 µg/mL (≈ 54.6 µM).

**Q.** What about the MIC (P. aeruginosa; P. aeruginosa isolate no. 796, read-out: MIC) of the same compound?
**A.** The MIC was 16 µg/mL (≈ 27.3 µM).

**Q.** And the MBC (P. aeruginosa; P. aeruginosa isolate no. 956, read-out: MBC)?
**A.** Its MBC is 64 µg/mL (≈ 109 µM).

**Q.** And the MIC (P. aeruginosa; P. aeruginosa isolate no. 956, read-out: MIC)?
**A.** Its MIC is 4 µg/mL (≈ 6.83 µM).

**Q.** And the MBC (P. aeruginosa; P. aeruginosa isolate no. 1019, read-out: MBC)?
**A.** Its MBC is 4 µg/mL (≈ 6.83 µM).

**Q.** And the MIC (P. aeruginosa; P. aeruginosa isolate no. 1019, read-out: MIC)?
**A.** Its MIC is 4 µg/mL (≈ 6.83 µM).

**Q.** And the MBC (P. aeruginosa; P. aeruginosa isolate no. 1037, read-out: MBC)?
**A.** Its MBC is 4 µg/mL (≈ 6.83 µM).

**Q.** And the MIC (P. aeruginosa; P. aeruginosa isolate no. 1037, read-out: MIC)?
**A.** The MIC was 2 µg/mL (≈ 3.42 µM).
